Several values for one entry are separate records, joined by “and”; a condition that tells them apart may be missing. Equal values may be shown once.

For orientation: IC50 means the point on the concentration scale where inhibition reaches its midpoint.

Sequence of Wee1-like protein kinase (P30291 whole entry): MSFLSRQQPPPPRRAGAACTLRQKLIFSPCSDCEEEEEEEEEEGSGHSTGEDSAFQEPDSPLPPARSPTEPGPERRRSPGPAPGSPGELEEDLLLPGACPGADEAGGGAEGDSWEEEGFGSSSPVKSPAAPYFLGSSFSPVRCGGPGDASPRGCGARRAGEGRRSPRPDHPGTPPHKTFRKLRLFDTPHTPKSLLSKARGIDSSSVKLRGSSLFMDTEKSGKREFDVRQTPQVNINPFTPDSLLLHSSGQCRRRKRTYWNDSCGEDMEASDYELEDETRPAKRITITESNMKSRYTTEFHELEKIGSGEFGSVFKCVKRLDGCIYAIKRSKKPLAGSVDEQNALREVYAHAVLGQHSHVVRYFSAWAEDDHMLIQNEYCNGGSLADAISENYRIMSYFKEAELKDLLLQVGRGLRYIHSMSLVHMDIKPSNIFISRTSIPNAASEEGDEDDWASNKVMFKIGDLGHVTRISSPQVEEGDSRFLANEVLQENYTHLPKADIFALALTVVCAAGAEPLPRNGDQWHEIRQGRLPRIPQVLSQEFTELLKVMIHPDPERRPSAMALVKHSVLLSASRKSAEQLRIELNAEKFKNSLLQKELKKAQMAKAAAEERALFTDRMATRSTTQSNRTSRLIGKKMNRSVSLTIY

The test concerns the target Wee1-like protein kinase (Homo sapiens, UniProt P30291).
In the case of `O=C1NC(=O)c2c1c(I)cc1[nH]c3ccc(O)cc3c21`, the IC50 is 2340 nM.
Compound `NN1C(=O)c2c(-c3ccccc3)cc3[nH]c4ccc(O)cc4c3c2C1=O` gave an IC50 of 3980 nM.
The figure for `O=C1NC(=O)c2c1c(-c1cccc(O)c1Cl)cc1[nH]c3ccc(O)cc3c21` is 28.2 nM; for `CSc1ccc(-c2cc3[nH]c4ccc(O)cc4c3c3c2C(=O)NC3=O)cc1` it is 31600 nM.
The result for `CC(=O)c1cccc(-c2cc3[nH]c4ccc(O)cc4c3c3c2C(=O)NC3=O)c1` reads 4370 nM.
The result for `O=C1NC(=O)c2c1c(-c1ccccc1)c(-c1ccccc1)c1[nH]c3ccc(O)cc3c21` reads 2340 nM.
`O=C1NC(=O)c2c1cc(-c1ccccc1)c1[nH]c3ccc(O)cc3c21`: the half-inhibitory concentration (IC50) is 4070 nM.
The result for `O=C1NC(=O)c2c1c(-c1ccccc1Cl)cc1c2c2cc(O)c(CCCCn3cccc3)cc2n1CCO` reads 24 nM; that for `O=C1NC(=O)c2c1c(-c1ccccc1Cl)cc1c2c2c(n1CCO)=CC(OCCCn1cccc1)C(O)(O)C=2` (stereo not given), 18 nM and 18.2 nM.
The result for `O=C1NC(=O)c2c1c(-c1ccccc1Cl)cc1c2c2cc(O)c(OCCCn3cccc3)cc2n1CCO` reads 24 nM.
The result for `Cn1c2cc(SCCCn3cccc3)c(O)cc2c2c3c(c(-c4ccccc4Cl)cc21)C(=O)NC3=O` reads 20 nM.
With `O=C1NC(=O)c2c1ccc1c2c2cc(O)ccc2n1CCO`, the IC50 was 25.1 nM and 25 nM.
The figure for `Cn1c2cc([S+]([O-])CCCn3cccc3)c(O)cc2c2c3c(c(-c4ccccc4Cl)cc21)C(=O)NC3=O` (stereo not given) is 33 nM and 33.1 nM; for `O=C1NC(=O)c2c1c(-c1c(Cl)cccc1Cl)cc1c2c2cc(O)ccc2n1CCCC(=O)N1CCOCC1` it is 64.6 nM and 64 nM.
The figure for `O=C1NC(=O)c2c1c(-c1c(Cl)cccc1Cl)cc1c2c2cc(O)ccc2n1CCCC(=O)n1ccnc1` is 58.9 nM and 59 nM; for `O=C1NC(=O)c2c1ccc1c2c2cc(O)ccc2n1CCCNc1ccccc1` it is 93.3 nM and 93 nM.
In turn, `CN(C)CCNC(=O)CCn1c2ccc(O)cc2c2c3c(ccc21)C(=O)NC3=O` showed an IC50 of 170 nM.
Turning to `CN1CCN(CCCn2c3ccc(O)cc3c3c4c(ccc32)C(=O)NC4=O)CC1`, the concentration for half-maximal inhibition (IC50) is 302 nM and 300 nM.
The figure for `NC(=O)CCn1c2ccc(O)cc2c2c3c(ccc21)C(=O)NC3=O` is 20.9 nM and 21 nM; for `O=C1NC(=O)c2c1c(-c1ccc(-c3ccccc3)cc1)cc1[nH]c3ccc(O)cc3c21` it is 40000 nM.
The result for `O=C1NC(=O)c2c1c(-c1ccccc1Cl)cc1[nH]c3cc(OCCCn4cccc4)c(O)cc3c21` reads 36 nM and 36.3 nM.
The result for `O=C1NC(=O)c2c1c(-c1ccccc1Cl)cc1c2c2cc(O)ccc2n1CCC(=O)N1CCOCC1` reads 64.6 nM and 64 nM.
Turning to `O=C1NC(=O)c2c1c(-c1c(Cl)cccc1Cl)cc1c2c2cc(O)ccc2n1CCC(=O)N1CCOCC1`, the IC50 was 110 nM.
With `O=C1NC(=O)c2c1c(-c1ccccc1Cl)cc1c2c2cc(O)ccc2n1CC[S+]([O-])n1ccnn1` (stereo not given), the IC50 was 9 nM and 8.91 nM.
The result for `O=C1NC(=O)c2c1c(-c1c(Cl)cccc1Cl)cc1c2c2cc(O)ccc2n1CCC(=O)n1ccnc1` reads 120 nM; that for `Nc1cc(-c2cc3[nH]c4ccc(O)cc4c3c3c2C(=O)NC3=O)ccc1Cl`, 24 nM; that for `O=C1NC(=O)c2c1c(-c1ccccc1Cl)cc1c2c2cc(O)ccc2n1CCS(=O)(=O)n1ccnn1`, 19 nM and 19.1 nM.
The result for `O=C1NC(=O)c2c1ccc1c2c2cc(O)ccc2n1CCC(=O)n1ccnc1` reads 229 nM and 230 nM; that for `O=C1NC(=O)c2c1ccc1c2c2cc(O)ccc2n1CCC(=O)N1CCOCC1`, 140 nM and 141 nM.
The result for `CN(C)CCCn1c2ccc(O)cc2c2c3c(ccc21)C(=O)NC3=O` reads 360 nM and 363 nM.
On to `Cn1c2cc(CCCCn3cccc3)c(O)cc2c2c3c(c(-c4ccccc4Cl)cc21)C(=O)NC3=O`, for which the IC50 is 36 nM and 36.3 nM.
The figure for `Cn1c2ccc(O)cc2c2c3c(ccc21)C(=O)NC3=O` is 141 nM and 140 nM; for `O=C1NC(=O)c2c1ccc1c2c2cc(O)ccc2n1CCCO` it is 200 nM.
The figure for `Cn1c2cc(S(=O)(=O)NCCn3cccc3)c(O)cc2c2c3c(c(-c4ccccc4Cl)cc21)C(=O)NC3=O` is 46 nM and 45.7 nM; for `O=C1NC(=O)c2c1c(-c1ccccc1Cl)cc1[nH]c3cc(CCCCn4cccc4)c(O)cc3c21` it is 50 nM and 50.1 nM.
The result for `CNCCCn1c2ccc(O)cc2c2c3c(ccc21)C(=O)NC3=O` reads 282 nM and 280 nM; that for `O=C1NC(=O)c2c1ccc1c2c2cc(O)ccc2n1CCCC(=O)N1CCOCC1`, 288 nM and 290 nM; that for `CN(C)CCn1c2ccc(O)cc2c2c3c(ccc21)C(=O)NC3=O`, 200 nM.
As to `O=C(O)CCn1c2ccc(O)cc2c2c3c(ccc21)C(=O)NC3=O`, the IC50 is 22.9 nM and 23 nM.
The result for `O=C1NC(=O)c2c1c(-c1ccccc1Cl)cc1c2c2cc(O)ccc2n1CCC(=O)n1ccnc1` reads 91.2 nM and 92 nM.
For the compound `Cn1c2cc(S(=O)(=O)CCCn3cccc3)c(O)cc2c2c3c(c(-c4ccccc4Cl)cc21)C(=O)NC3=O`, the IC50 was 160 nM and 158 nM.
The figure for `O=C1NC(=O)c2c1ccc1c2c2cc(O)ccc2n1CCCC(=O)n1ccnc1` is 110 nM; for `O=C1NC(=O)c2c1c(-c1ccccc1Cl)cc1c2c2cc(O)ccc2n1CCSn1ccnn1` it is 24 nM.
The result for `CS(=O)(=O)c1ccc(-c2cc3[nH]c4ccc(O)cc4c3c3c2C(=O)NC3=O)cc1` reads 1120 nM and 1100 nM.
The figure for `O=C1NC(=O)c2c1c(-c1ccccc1Cl)cc1c2c2cc(O)ccc2n1CCCC(=O)n1ccnc1` is 54 nM and 53.7 nM.

Values taken from ChEMBL document CHEMBL1137719, “Receptor-based 3D-QSAR studies of checkpoint Wee1 kinase inhibitors” (Eur J Med Chem, 2009).
